Reference: ChEMBL document CHEMBL1151221, “Three new sesquiterpenes from Croton arboreous” (2004)

Tested on: Mus musculus
Assay: Antiinflammatory activity against mouse assessed as inhibition TPA-induced ear edema at 0.5 mg/kg
Assay type: functional
Parameters: scale not given: the % may be the effect or the level left

| Structure (SMILES) | Activity |
| --- | --- |
| C=C1CC[C@@H](O)[C@]2(C)CC[C@@H](C(C)C)[C@@H](O)[C@@H]12 | 29.9% |
| CC1=CC[C@@H](O)[C@]2(C)CC[C@H](C(C)C)[C@H](O)[C@@H]12 | 28% |
| C=C1CC[C@@H]2[C@H]([C@H]3[C@H]1CC[C@]3(C)O)C2(C)C [SPATHULENOL] | 31.5% |
